Read-outs that look alike come from different tables or passages of the source.
How the values were obtained:
CRBN = biological target: T1, CRBN (Homo sapiens, UniProt Q96SW2); test: Western blot for expression of CRBN relative to vinculin in human T cells (CRBN degradation); format: cell-based; conditions: for remaining activity at 10 µM / remaining activity at 0.01 µM: read-out: Relative Density of CRBN (% of DMSO); for remaining activity at 0.01 µM: 24 h; for CRBN Degradation ** (WB): grade (+) to (++++) or words, key not given
T1 construct: endogenous in cells; host or cells: primary human T cells / CD8+ T cells from peripheral blood
T1 sequence (Q96SW2 whole entry): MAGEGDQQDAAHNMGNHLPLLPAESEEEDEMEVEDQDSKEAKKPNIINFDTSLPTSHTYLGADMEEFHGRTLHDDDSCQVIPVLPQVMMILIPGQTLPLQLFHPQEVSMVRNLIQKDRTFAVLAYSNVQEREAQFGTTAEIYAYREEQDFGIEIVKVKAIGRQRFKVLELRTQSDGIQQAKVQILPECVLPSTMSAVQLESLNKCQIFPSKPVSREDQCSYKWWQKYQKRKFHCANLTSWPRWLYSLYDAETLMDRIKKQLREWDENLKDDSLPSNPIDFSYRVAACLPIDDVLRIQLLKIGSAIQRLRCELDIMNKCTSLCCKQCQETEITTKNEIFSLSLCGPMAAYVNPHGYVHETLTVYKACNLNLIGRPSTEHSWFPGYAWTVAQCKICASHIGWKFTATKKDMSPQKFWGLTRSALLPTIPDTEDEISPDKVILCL
Excerpt: Bortez=bortezomib; MG132=proteasome inhibitor; MLN4924=NEDD8 inhibitor.
This assay is a standard Western blot assay for expression of CRBN relative to vinculin.
[…] 0.1 percent DMSO was used as a vehicle control.

cereblon (CRBN) = cereblon (CRBN) (Homo sapiens, UniProt Q96SW2); test: Kd and % inhibition from FI; format: binding; conditions: for inhibition at 200 µM: read-out: % inhibition @ 200 uM from *FI
Chain of cereblon (CRBN) (Q96SW2 whole entry, species assumed): as the sequence (Q96SW2 whole entry) above

[1] = FI, read-out: Kd (FI) (converted)
[2] = cell does not state FI or ITC, read-out: Kd (A) FI/ITC

remaining activity at 10 µM (CRBN; 10uM) | remaining activity at 0.01 µM (CRBN; 10nM, human T cells, 24 hours) | Kd (cereblon (CRBN); [1]) | inhibition at 200 µM (cereblon (CRBN)) | Compound | further results
19.4% | 44.3% | 9.38 ± 0.59 µM | 79.6 ± 3.13% | O=C1CCC(N2Cc3c(CCCOCCOCCOCCOCCCc4cccc5c4CN(C4CCC(=O)NC4=O)C5=O)cccc3C2=O)C(=O)N1 (centres unmarked) [SM2-139, 3,3′-((4,7,10,13-Tetraoxahexadecane-1,16-diyl)bis(1-oxoisoindoline-4,2-diyl))bis(piperidine-2,6-dione)] | 
59.1% | 108% | 8.21 ± 1.22 µM | 83.88 ± 0.28% | O=C(/C=C/c1cccc2c1CN(C1CCC(=O)NC1=O)C2=O)NCCOCCOCCOCCNC(=O)/C=C/c1cccc2c1CN(C1CCC(=O)NC1=O)C2=O (centres unmarked) [SM3-009, (2E,2′E)-N,N′-(((Oxybis(ethane-2,1-diyl))bis(oxy))bis(ethane-2,1-diyl))bis(3-(2-(2,6-dioxopiperidin-3-yl)-1-oxoisoindolin-4-yl)acrylamide)] | 
102% | 125% | 14.3 ± 0.05 µM | 72 ± 0.8% | O=C(/C=C/c1cccc2c1CN(C1CCC(=O)NC1=O)C2=O)NCCOCCOCCNC(=O)/C=C/c1cccc2c1CN(C1CCC(=O)NC1=O)C2=O (centres unmarked) [SM3-003, (2E,2′E)-N,N′-((ethane-1,2-diylbis(oxy))bis(ethane-2,1-diyl))bis(3-(2-(2,6-dioxopiperidin-3-yl)-1-oxoisoindolin-4-yl)acrylamide)] | 
1.74% | 76.3% | 22.8 ± 0.55 µM | 87.3 ± 2% | O=C1CCC(N2Cc3c(NC(=O)CCCCC(=O)Nc4cccc5c4CN(C4CCC(=O)NC4=O)C5=O)cccc3C2=O)C(=O)N1 (centres unmarked) [EC1-149, N^1,N^6-Bis(2-(2,6-dioxopiperidin-3-yl)-1-oxoisoindolin-4-yl)adipamide] | 
33.4% | 56.8% | 11.2 ± 0.53 µM | 79.5 ± 2.29% | O=C1CCC(N2Cc3c(CCCOCCOCCOCCOCCOCCCc4cccc5c4CN(C4CCC(=O)NC4=O)C5=O)cccc3C2=O)C(=O)N1 (centres unmarked) [SM2-156, 3,3′-((4,7,10,13,16-Pentaoxanonadecane-1,19-diyl)bis(1-oxoisoindoline-4,2-diyl))bis(piperidine-2,6-dione)] | 
91.1% | 80.6% | 15 ± 0.97 µM | 72.8 ± 1.38% | O=C(CCc1cccc2c1CN(C1CCC(=O)NC1=O)C2=O)NCCOCCOCCNC(=O)CCc1cccc2c1CN(C1CCC(=O)NC1=O)C2=O (centres unmarked) [SM3-005, N,N′-((Ethane-1,2-diylbis(oxy))bis(ethane-2,1-diyl))bis(3-(2-(2,6-dioxopiperidin-3-yl)-1-oxoisoindolin-4-yl)propanamide)] | 
63.4% |  |  |  | O=C1CCC(NC(=O)c2cccc(NC(=O)CCCCCCCCC(=O)Nc3cccc(C(=O)NC4CCC(=O)NC4=O)c3)c2)C(=O)N1 (centres unmarked) [XS01-075, N^1,N^10-Bis(3-((2,6-dioxopiperidin-3-yl)carbamoyl)phenyl)decanediamide] | 
40.3% | 48.4% |  |  | O=C1CCC(N2Cc3ccc(NC(=O)CCCC(=O)Nc4ccc5c(c4)C(=O)N(C4CCC(=O)NC4=O)C5)cc3C2=O)C(=O)N1 (centres unmarked) [EC2-060, N^1,N^5-bis(2-(2,6-Dioxopiperidin-3-yl)-3-oxoisoindolin-5-yl)glutaramide] | CRBN Degradation ** (WB) (CRBN): No degradation
79.7% | 85.6% |  |  | O=C1CCC(N2Cc3c(C#CCCCC(=O)Nc4cccc5c4CN(C4CCC(=O)NC4=O)C5=O)cccc3C2=O)C(=O)N1 (centres unmarked) [EC2-108, N,6-bis(2-(2,6-Dioxopiperidin-3-yl)-1-oxoisoindolin-4-yl)hex-5-ynamide] | 
175% | 228% |  |  | Cc1nc2cccc(NC(=O)Cn3cc(CCC(=O)Nc4cccc5c4CN(C4CCC(=O)NC4=O)C5=O)nn3)c2c(=O)n1C1CCC(=O)NC1=O (centres unmarked) [XS01-127, N-(2-(2,6-Dioxopiperidin-3-yl)-1-oxoisoindolin-4-yl)-3-(1-(2-((3-(2,6-dioxopiperidin-3-yl)-2-methyl-4-oxo-3,4-dihydroquinazolin-5-yl)amino)-2-oxoethyl)-1H-1,2,3-triazol-4-yl)propanamide] | 
32.2% | 55.5% |  |  | O=C1CCC(N2Cc3c(C#CCCCCCCCC(=O)Nc4cccc5c4CN(C4CCC(=O)NC4=O)C5=O)cccc3C2=O)C(=O)N1 (centres unmarked) [EC2-100, N,10-bis(2-(2,6-Dioxopiperidin-3-yl)-1-oxoisoindolin-4-yl)dec-9-ynamide] | 
25.2% | 58.9% |  |  | O=C1CCC(N2Cc3c(CCCCCCCCCC(=O)Nc4cccc5c4CN(C4CCC(=O)NC4=O)C5=O)cccc3C2=O)C(=O)N1 (centres unmarked) [EC2-102, N,10-bis(2-(2,6-Dioxopiperidin-3-yl)-1-oxoisoindolin-4-yl)decanamide] | 
133% | 116% |  |  | O=C1CCC(NC(=O)CCCCCCC(=O)NC2CCC(=O)NC2=O)C(=O)N1 (centres unmarked) [XS01-093, N^1,N^8-Bis(2,6-dioxopiperidin-3-yl)octanediamide] | 
21.4% | 5.13% |  |  | Cc1nc2cccc(NCc3ccc(CNc4cccc5nc(C)n(C6CCC(=O)NC6=O)c(=O)c45)cc3)c2c(=O)n1C1CCC(=O)NC1=O (centres unmarked) [MA10-112] | 

Second part, the compound before the results:

Compound | remaining activity at 10 µM (CRBN; 10uM) | remaining activity at 0.01 µM (CRBN; 10nM, human T cells, 24 hours) | Kd (cereblon (CRBN); [1]) | inhibition at 200 µM (cereblon (CRBN)) | further results
O=C1CCC(N2Cc3c(NC(=O)[C@H]4CC[C@H](C(=O)Nc5cccc6c5CN(C5CCC(=O)NC5=O)C6=O)CC4)cccc3C2=O)C(=O)N1 (stereo partly drawn) [EC1-154, (Trans)-N^1,N^4-Bis(2-(2,6-dioxopiperidin-3-yl)-1-oxoisoindolin-4-yl)cyclohexane-1,4-dicarboxamide] |  |  |  | 18.4 ± 77% | remaining activity at 0.01 µM (CRBN): 103%; remaining activity at 10 µM (CRBN): 44.2%
Cc1ncsc1-c1ccc(CNC(=O)[C@@H]2C[C@@H](O)CN2C(=O)[C@@H](NC(=O)COCCOCCOCCOCCCc2cccc3c2CN(C2CCC(=O)NC2=O)C3=O)C(C)(C)C)cc1 (stereo partly drawn) [SR3-108, (2S,4R)-1-((2S)-2-(tert-Butyl)-18-(2-(2,6-dioxopiperidin-3-yl)-1-oxoisoindolin-4-yl)-4-oxo-6,9,12,15-tetraoxa-3-azaoctadecanoyl)-4-hydroxy-N-(4-(4-methylthiazol-5-yl)benzyl)pyrrolidine-2-carboxamide] |  |  | 13.6 ± 1.51 µM |  | 
O=C1CCC(N2Cc3c(C#CCCCCCCC#Cc4cccc5c4CN(C4CCC(=O)NC4=O)C5=O)cccc3C2=O)C(=O)N1 (centres unmarked) [EC2-086, 3,3′-(Deca-1,9-diyne-1,10-diylbis(1-oxoisoindoline-4,2-diyl))bis(piperidine-2,6-dione)] | 10.3% |  |  |  | Kd (cereblon (CRBN); [2]): 86.5 ± 25.3 µM
Cc1sc2c(c1C)C(c1ccc(Cl)cc1)=N[C@H](CC(=O)NCCCCC(=O)N[C@H]1CC(=O)NC1=O)c1nnc(C)n1-2 [XS01-089] |  |  |  |  | Kd (cereblon (CRBN); [2]): 353 ± 108 µM
O=C1CCC(N2C(=O)c3cccc(NC(=O)[C@H]4CC[C@@H](C(=O)Nc5cccc6c5C(=O)N(C5CCC(=O)NC5=O)C6=O)CC4)c3C2=O)C(=O)N1 (stereo partly drawn) [EC1-133, (cis)-N^1,N^4-bis(2-(2,6-Dioxopiperidin-3-yl)-1,3-dioxoisoindolin-4-yl)cyclohexane-1,4-dicarboxamide] | 10.3% | 119% |  |  | % inhibition @ 200 uM from *FI (cereblon (CRBN)): n.b.
O=C1CC[C@H](N2Cc3c(C#CCOCCOCC#Cc4cccc5c4CN([C@H]4CCC(=O)NC4=O)C5=O)cccc3C2=O)C(=O)N1 [XS01-008B2, (3S,3'S)-3,3′-(((Ethane-1,2-diylbis(oxy))bis(prop-1-yne-3,1-diyl))bis(1-oxoisoindoline-4,2-diyl))bis(piperidine-2,6-dione)] |  | 11.8% | 2.53 ± 1.53 µM |  | 
O=C1CCC(N2Cc3c(NC(=O)CCCCCCCC(=O)Nc4cccc5c4CN(C4CCC(=O)NC4=O)C5=O)cccc3C2=O)C(=O)N1 (centres unmarked) [EC1-151, N^1,N^9-Bis(2-(2,6-dioxopiperidin-3-yl)-1-oxoisoindolin-4-yl)nonanediamide] | 32% | 137% | 14.2 ± 3.16 µM | 46.7 ± 9% | 
O=C1CCC(N2Cc3c(NC(=O)CCCCCC(=O)Nc4cccc5c4CN(C4CCC(=O)NC4=O)C5=O)cccc3C2=O)C(=O)N1 (centres unmarked) [EC1-141, N^1,N^7-Bis(2-(2,6-dioxopiperidin-3-yl)-1-oxoisoindolin-4-yl)heptanediamide] | 7.19% | 91.2% | 22.1 ± 1.47 µM | 71.6 ± 2% | 
O=C1CCC(N2C(=O)c3cccc(NC(=O)CCCCCCCC(=O)Nc4cccc5c4C(=O)N(C4CCC(=O)NC4=O)C5=O)c3C2=O)C(=O)N1 (centres unmarked) | 6.19% | 29.8% |  |  | % inhibition @ 200 uM from *FI (cereblon (CRBN)): n.b
Cc1sc2c(c1C)C(c1ccc(Cl)cc1)=N[C@H](CC(=O)NCCCCC(=O)NC1CCC(=O)NC1=O)c1nnc(C)n1-2 (some centres unmarked) [EC2-092] |  |  |  |  | Kd (cereblon (CRBN); [2]): 226 ± 21.6 µM
O=C1C[C@H](NC(=O)CCCCCCCCC(=O)N[C@H]2CC(=O)NC2=O)C(=O)N1 [XS01-081, N^1,N^10-Bis((S)-2,5-dioxopyrrolidin-3-yl)decanediamide] | 35% |  |  |  | 
Cc1nc2cccc(CCc3ccc(CCc4cccc5nc(C)n(C6CCC(=O)NC6=O)c(=O)c45)cc3)c2c(=O)n1C1CCC(=O)NC1=O (centres unmarked) [XS01-038, 3,3′-((1,4-Phenylenebis(ethane-2,1-diyl))bis(2-methyl-4-oxoquinazoline-5,3(4H)-diyl))bis(piperidine-2,6-dione)] | 133% | 29% |  |  | CRBN Degradation ** (WB) (CRBN): No degradation

From US20250288573A1 (H. LEE MOFFITT CANCER CENTER AND RESEARCH INSTITUTE, INC., priority 2018, published 2025)
